“Also recorded” adds a separate entry of the source. Starred links: 1 amine or outer side, 2 acyl side, 3 side chain; linkers in the order of their positions; H or OH if unused. Non-standard residues stand in square brackets, D forms with d. Residues, ends and D or L forms follow the SMILES beside them. Primed or numbered codes have the meaning given here. *: point of attachment. aIle′ = Ile with backbone N-amino (N-aminated amide nitrogen), CC[C@H](C)[C@@H](C(=O)[*:2])N(N)[*:1]; aVal = Val with backbone N-amino (N-aminated amide nitrogen), CC(C)[C@@H](C(=O)[*:2])N(N)[*:1]; X2 = NN([C@@H](Cc1ccc(O)cc1)C(=O)[*:2])[*:1]; X1 = CC[C@H](C)[C@@H](C(=O)[*:2])N(N)[*:1]; N(NH2)LysNH2 = NCCCC[C@@H](C(N)=O)N(N)*; X3 = CC(C)[C@@H](C(=O)[*:2])N(N)[*:1]; N(NH2)Lys = NCCCC[C@H](NN)C(=O)O
Experiments:
tauP301L fibrils = assay: Transmission electron microscopy of heparin-induced tauP301L fibrils; type: biochemical, human; conditions: two-fold molar excess of inhibitor, 96 h
Protocol: For analyzing fibrils by transmission electron microscopy (TEM), aggregation was carried out under conditions similar to the assay above but with ThT excluded and a final reaction volume of 100 μL Samples were incubated in a microcentrifuge tube for 4 days at 37° C. with a mixing speed of 100 rpm. A 10 μL aliquot of the sample was then applied to 400-meshed formvar/carbon-coated copper grids and negative stained with 2% uranyl-acetate. Micrographs were taken on a JEOL 2011 TEM at 200 kV.

[1] = system: HEK293 cells stably expressing tau-RD (P301L/V337M)-YFP; type: cell-based, human; conditions: 36 h
Protocol: TauP301L was diluted to a final concentration of 10 μM in an aggregation buffer containing 100 mM sodium acetate, 10 μM heparin, 2 mM DTT, pH 7.4. The protein was incubated in a microcentrifuge tube for 4 days at 37° C. with a shaking speed of 100 rpm. Control vials included those wherein (1) buffer was added in place of tauP301L, and (2) buffer was added in place of heparin.
(§1) HEK293 cells stably expressing tau-RD (LM)-YFP were cultured in DMEM media containing 10% FBS, 1% penicillin/streptomycin, and 1% Glutamax™ (Gibco) in a 75 cm^2 cell culture flask under 5% CO2 at 37° C. For each experiment, cells were plated at a density of 15000 cells/well into 96 well tissue culture plates.
TauP301L fibrils were prepared as described above (see section on fibril formation) and sonicated for 3 minutes prior to use in this assay. In a reaction volume of 40 μL, 8 μL of fibrils was diluted with 31 μL of low-serum Opti-MEM® (Gibco) media and then mixed with 1 μL of NAPs (DMSO concentration was constant across various concentration of inhibitors). […] IC50 values were calculated by fitting the data set using sigmoidal logistic 4 parameter equation. Error bars represent standard deviation from technical replicates. % Tau infection was calculated using following formula: […]

[2] = system: human neuroblastoma SH-SY5Y cells; assay: MTT cell viability assay on SH-SY5Y cells; type: cell-based; conditions: 10 μM and 50 μM, 48 h
Protocol: MTT cell viability assays were carried out on both HEK293 cells stably expressing tau-RD (LM)-YFP and SH-SY5Y cells. Cells were cultured in DMEM/F12 complete media containing 10% FBS, 1% penicillin/streptomycin and 1% Glutamax™ (Gibco) in a 75 cm^2 cell culture flask under 5% CO2 at 37° C. Cell viability was determined using MTT reduction assay. Briefly, 15,000 cells/well were plated in a 96 well tissue culture plate and were allowed to incubate overnight in a CO2 incubator. The media was aspirated, and the NAP inhibitor prepared in complete media was added at a given final concentration. The plate was then allowed to incubate for additional 48 h in a CO2 incubator and the media was aspirated again and replaced with 0.5 mg/mL of MTT prepared in complete media and incubated for additional 3 h. Media was then replaced with DMSO to dissolve formazan crystals and the absorbance was measured at 570 nm using Synergy H1 micro plate reader. Each data set were collected from technical replicates on at least two different days.

[3] = Human serum stability assay; type: in vitro ADME; conditions: 25% human serum, 24 h
Protocol: The stability of NAPs in 25% human serum (Millipore Sigma) was assessed by HPLC. The reaction was started by adding NAPs at a final concentration of 500 μM in pre-warmed serum. The mixture was incubated at 37° C. for 24 h. A 100 μL aliquot of the reaction mixture was taken out at 0 h, 1 h, 4 h, and 24 h and was mixed with an equal volume of 20% TCA and incubated at 4° C. for 15 minutes to precipitate serum proteins. After centrifugation at 12000 rpm for 10 min, the supernatant was collected and mixed with an internal standard (1 mg/mL of Cbz-Tyr-OH dissolved in MeCN) and stored at −20° C. Samples were then analyzed by LC-MS and the percentage of peptide remaining was calculated by integrating peaks.

[4] = system: Recombinant tauP301L (0N4R); assay: Thioflavin T (ThT) fluorescence aggregation assay of recombinant tauP301L; type: biochemical, human; conditions: Tau 10 μM : inhibitor 20 μM (2-fold molar excess), heparin, 48 h
Protocol: Recombinant tauP301L (10 μM final concentration) and NAP inhibitors 20 μM final concentration) were mixed in an aggregation buffer (100 mM sodium acetate, 10 μM ThT, 10 μM heparin, 2 mM DTT, 0.5% DMSO, pH 7.4) in a 96-well clear bottom black plate with a final reaction volume of 200 μL. The plate was then sealed with a clear sealing film and allowed to incubate at 37° C. with continuous shaking in a Biotek Synergy H1 microplate reader. An automated method was used to carry out ThT fluorescence measurements at an excitation wavelength of 444 nm and an emission wavelength of 485 nm at an interval of every 5 minutes for 48 hours. Experiments were carried out in technical replicates on at least two different days. Every experiment included control wells that lacked tau301L, heparin, or NAPs. The average of tau-only (no heparin) wells was used to subtract background fluorescence and the average of the first and last 10 data points of tau+heparin wells, after blank subtraction, was used to normalize the data. All data plots were generated with SigmaPlot.

[5] = system: HEK293 cells stably expressing tau-RD (P301L/V337M)-YFP; assay: Cellular seeding assay, seeding by monomeric tau co-incubated with NAPs; type: cell-based, human; conditions: 0.19 μM Tau, 4 days co-incubation, cells 48 h
Protocol: as §1
Monomeric tauP301L was co-incubated with NAPs for 4 days in an aggregation buffer at 37° C. (see above section). Following incubation, the reaction mixture was diluted in low serum Opti-MEM® media (Gibco), mixed with lipofectamine 2000 in 20:1 ratio (complex:lipofectamine) and allowed to incubate for an additional 20 minutes at RT. A mixture of 0.19 μM of Tau+1.9 μM or 0.009 μM of inhibitors (final concentrations) was added to the cells. Cells were incubated for additional 48 h before taking measurements on a BioTek Cytation 5 cell imager and microplate reader. 10×10 pictures/well were taken at 20× magnification under FITC channel and the punctate counting was carried out using built-in software. Each data set was collected from technical replicates on at least two different days. Every experiment included control wells (no tau, no heparin, and no NAP). All data plots were generated with SigmaPlot. Error bars shown are standard deviation from technical replicates.

[6] = molecular target: T1, synthetic, full-length Aβ42 (Homo sapiens, UniProt P05067); assay: ThT fluorescence assay with Aβ42; type: biochemical; conditions: Aβ42 40 μM
T1 construct: synthetic, full-length Aβ42 (40 μM)
T1 sequence (P05067 672-713 limits assumed): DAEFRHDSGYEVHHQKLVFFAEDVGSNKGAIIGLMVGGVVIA
Protocol: A peptidomimetic approach to tau inhibition offers prospects for achieving selectivity over other amyloids rich in β structure. As a preliminary test, the best-performing tau mimic, compound 12 (EG09; SEQ ID NO: 18), was selected and its effect on Aβ42 aggregation in vitro was determined (FIG. 11).

Compound | fibril morphology / inhibition of Tau fibril formation by TEM (tauP301L fibrils) | effect on end-point ThT fluorescence of tauP301L (inhibition of Tau aggregation) [4] | further results
Ac-aVal-Gln-aIle-Val-Tyr-Lys-NH2 (Ac-[aVal]Q[aIle′]VYK-NH2; SMILES CC[C@H](C)[C@@H](C(=O)N[C@H](C(=O)N[C@@H](Cc1ccc(O)cc1)C(=O)N[C@@H](CCCCN)C(N)=O)C(C)C)N(N)C(=O)[C@H](CCC(N)=O)NC(=O)[C@H](C(C)C)N(N)C(C)=O) [Compound 10] | did not inhibit Tau fibril formation |  | 
CC[C@H](C)[C@H](NC(=O)[C@H](CCC(N)=O)NC(=O)[C@@H](NC(C)=O)C(C)C)C(=O)N(N)[C@H](C(=O)N[C@@H](Cc1ccc(O)cc1)C(=O)N(N)[C@@H](CCCCN)C(N)=O)C(C)C [Compound 13, Ac-Val-Gln-Ile-aVal-Tyr-aLys-NH2] (Ac-VQI[X3]Y-{N(NH2)LysNH2}) |  |  | IC50 [1]: ~5 µM; cytotoxic effect, MTT assay [2]: no appreciable toxicity; also recorded: non-cytotoxic; stability in human serum [3]: remarkably stable
Ac-Val-Gln-aIle-Ile-Asn-Lys-NH2 (Ac-VQ[aIle′]INK-NH2; SMILES CC[C@H](C)[C@H](NC(=O)[C@H]([C@@H](C)CC)N(N)C(=O)[C@H](CCC(N)=O)NC(=O)[C@@H](NC(C)=O)C(C)C)C(=O)N[C@@H](CC(N)=O)C(=O)N[C@@H](CCCCN)C(N)=O) [Compound 2] | short, immature rod-like fibrils | significantly reduce | 
Ac-aVal-Gln-Ile-Val-Tyr-Lys-NH2 (Ac-[aVal]QIVYK-NH2; SMILES CC[C@H](C)[C@H](NC(=O)[C@H](CCC(N)=O)NC(=O)[C@H](C(C)C)N(N)C(C)=O)C(=O)N[C@H](C(=O)N[C@@H](Cc1ccc(O)cc1)C(=O)N[C@@H](CCCCN)C(N)=O)C(C)C) [Compound 5] | short, immature rod-like fibrils | significantly reduce | 
Ac-Val-Gln-aIle-Val-Tyr-Lys-NH2 (Ac-VQ[aIle′]VYK-NH2; SMILES CC[C@H](C)[C@@H](C(=O)N[C@H](C(=O)N[C@@H](Cc1ccc(O)cc1)C(=O)N[C@@H](CCCCN)C(N)=O)C(C)C)N(N)C(=O)[C@H](CCC(N)=O)NC(=O)[C@@H](NC(C)=O)C(C)C) [Compound 6] | short, immature rod-like fibrils | significantly reduce | 
Ac-aVal-Gln-aIle-Ile-Asn-Lys-NH2 (Ac-[aVal]Q[aIle′]INK-NH2; SMILES CC[C@H](C)[C@H](NC(=O)[C@H]([C@@H](C)CC)N(N)C(=O)[C@H](CCC(N)=O)NC(=O)[C@H](C(C)C)N(N)C(C)=O)C(=O)N[C@@H](CC(N)=O)C(=O)N[C@@H](CCCCN)C(N)=O) [Compound 4] | non-fibrillary amorphous aggregates; also recorded: non-fibrillary, amorphous aggregates | significantly reduce | seeding capacity of monomeric tauP301L pre-treated with inhibitor ([5]; 0.009 μM inhibitor): far weaker anti-seeding activity; seeding capacity of monomeric tauP301L pre-treated with inhibitor ([5]; 1.9 μM inhibitor): far weaker anti-seeding activity
CC[C@H](C)[C@@H](C(=O)N[C@H](C(=O)N(N)[C@@H](Cc1ccc(O)cc1)C(=O)N[C@@H](CCCCN)C(N)=O)C(C)C)N(N)C(=O)[C@H](CCC(N)=O)NC(=O)[C@@H](NC(C)=O)C(C)C [Compound 12, Ac-Val-Gln-aIle-Val-aTyr-Lys-NH2] (Ac-VQ[X1]V[X2]K-NH2) | non-fibrillary amorphous aggregates; also recorded: non-fibrillary, amorphous aggregates | significantly reduce | seeding capacity of monomeric tauP301L pre-treated with inhibitor ([5]; 0.009 μM inhibitor): less pronounced; seeding capacity of monomeric tauP301L pre-treated with inhibitor ([5]; 1.9 μM inhibitor): significantly reduced seeding capacity; effect on lag-time of Aβ42 aggregation ([6]; any of the concentrations tested): no effect on lag-time; inhibitory effect on Aβ42 aggregation ([6]; compound up to 4-fold molar excess (160 μM), ThT): no inhibitory effect; IC50 [1]: ~5 µM; cytotoxic effect, MTT assay [2]: no appreciable toxicity; also recorded: non-cytotoxic; also recorded: non-toxic to neuronal cells; stability in human serum [3]: remarkably stable; also recorded: serum stable
Ac-Val-Gln-Ile-Val-Tyr-aLys-NH2 (Ac-VQIVY[N(NH2)Lys]-NH2; SMILES CC[C@H](C)[C@H](NC(=O)[C@H](CCC(N)=O)NC(=O)[C@@H](NC(C)=O)C(C)C)C(=O)N[C@H](C(=O)N[C@@H](Cc1ccc(O)cc1)C(=O)N(N)[C@@H](CCCCN)C(N)=O)C(C)C) [Compound 9] | did not inhibit Tau fibril formation |  | 
Ac-aVal-Gln-aIle-Val-aTyr-Lys-NH2 [Compound 14] | did not inhibit Tau fibril formation |  | 

Source: patent US20240116984A1, “MODIFIED PEPTIDES FOR THE INHIBITION OF ABNORMAL TAU ACCUMULATION” (University of Notre Dame du Lac, priority 2021, published 2024)
